Laboratory results as given in patent US9573907B2, “2, 4-pyrimidine derivatives and use thereof” (SNU R&DB FOUNDATION, priority 2009, dated 2017).

Tests used:
gp96 Y731F = target: T1, gp96 Y731F (Homo sapiens, UniProt P14625, Y735F); assay: Surface plasmon resonance, GPM1 binding to gp96 mutant Y731F
T1 construct: made in house; host or cells: Escherichia coli BL21 (DE3)
Protocol: Human gp96 was expressed as His tag fusion protein in Escherichia coli BL21 (DE3) and purified by nickel affinity chromatography. His-tagged human gp96 was immobilized onto CM5 sensor chips using standard amine coupling2. PBS was used as a running buffer. The carboxymethyl dextran surface within one side of the flow cell was activated with a 7-min injection of a 1:1 ratio of 0.4M EDC and 0.1M NHS. The protein was coupled to the surface with a 7-min injection of gp96 diluted in 10 mM sodium acetate, pH 3.7. Remaining activated groups were blocked with a 7-min injection of 1.0M ethanolamine, pH 8.5. GPM1 compound was dissolved directly in the PBS running buffer containing 1% DMSO and injected at a flow rate of 20 μl/min at 25° C. and the binding was determined by the change in resonance units (RU). The compound concentration varied from 10 nM to 25 μM and each concentration was tested at least three times. All of the bound complexes dissociated back to baseline within a reasonable time frame. Therefore, no regeneration was required. Sensorgram was processed by subtracting the binding response recorded from the control surface, followed by subtracting an average of the buffer blank injections from the reaction spot. To determine kinetic rate constants, all data sets were fit to a simple 1:1 binding with drifting baseline model using BIAevaluation program.
The present inventors compared the dose-dependent effect of GPM1 and NC1 on the interaction of gp96 and AIMP1 using ELISA. […] The present inventors monitored the binding kinetics of GPM1 to gp96 or AIMP1 by surface plasmon resonance (SPR) using BIAcore 3000. […] To further define the GPM1 binding region of gp96 (Han, J. M., Park, S. G., Liu, B., Park, B. J., Kim, J. Y., Jin, C. H., Song, Y. W., Li, Z. & Kim, S. Am. J. Pathol. 170, 2042-2054 (2007)), the present inventors introduced point mutations at L707, V706, V712, L713, F714, Y731 and M738 that are located within AIMP1 binding region of gp96 and monitored how the mutations at these sites would affect the binding of GPM1 to gp96 using SPR method.

gp96tm transgenic mice = test system: gp96tm transgenic mice
Protocol: Female gp96tm transgenic mice (Proc Natl Acad Sci USA. 2003 December 23; 100(26): 15824-15829) were bred and maintained at the animal center for pharmaceutical research, Seoul National University. We used age-matched, 12-26 weeks old mice in each experimental group. To suppress cell surface gp96 we used GPM1 compound. Dexamethasone and GPM1 were dissolved in 5% DMSO in phosphate-buffered saline (PBS) and control vehicle was 5% DMSO in PBS. Compounds were administered i.p. every 24 h for 2 months (30 mg/kg/day). Three groups of each 9 mice were examined. All procedures were conducted in accordance with the Guide for the Care and Use of Laboratory Animals, published by the Korean National Institute of Health.
Spleen and lymph node cell suspensions were prepared by grindling tissue through sterile mesh and erythrocytes were lysed with RBC lysis buffer (eBioscience, CA). For surface staining, antibodies were fluoresceinisothiocyanate (FITC)-, phycoerythrin (PE)-, PerCP-, or APC-conjugated. Antibodies used were CD4 (RM4-5, H129.12), CD8 (53-6,7), B220 (RA3-6B2), CD11b (M1/70), CD11c (HL3), CD44 (IM7), CD62L (MEL-14), CD69 (H1.2F3), CD25 (PC61.5), IgM (11/41), IgD (11-26C.2a) (BD Pharmingen, CA), MHC class II (M5/114.15.2), Foxp3 (FJK-16s) (eBioscience, CA), and gp96 (Santacruz, Calif.). After staining, cells were washed and analyzed on a FACS can flow cytometer using CellQuest software (BD Bioscience, Mountain View, Calif.).
Kidney tissue sections of gp96tm transgenic mice were fixed in 10% formaldehyde in PBS and dehydrated using an alcohol gradient. After paraffin infiltration, the tissues were sectioned using a microtome, stained with hematoxylin and eosin (H&E) and analyzed by light microscopy. For immunofluorescent staining, kidneys were sectioned with a cryostat. These cryosections were blocked with normal goat serum, stained with FITC-conjugated goat anti-mouse Ig (BD pharmingen, CA), and then observed by fluorescent microscopy.
The present inventors compared the effect of GPM1 with phosphate-buffered saline containing 5% DMSO and dexamethasone (Dex), an immunosuppressant of glucocorticoid family as negative and positive control, respectively. Each group consisted of age-matched nine female mice. […] After 2 month, the present inventors isolated MHC class II^+ splenocytes and lymph nodes from vehicle-, Dex-, and GPM1-treated mice and determined the portion of gp96^+ cells by flow cytometry.

[1] = spleen and lymph nodes, 30 mg/kg

T1 sequence (P14625 22-803 Y735F): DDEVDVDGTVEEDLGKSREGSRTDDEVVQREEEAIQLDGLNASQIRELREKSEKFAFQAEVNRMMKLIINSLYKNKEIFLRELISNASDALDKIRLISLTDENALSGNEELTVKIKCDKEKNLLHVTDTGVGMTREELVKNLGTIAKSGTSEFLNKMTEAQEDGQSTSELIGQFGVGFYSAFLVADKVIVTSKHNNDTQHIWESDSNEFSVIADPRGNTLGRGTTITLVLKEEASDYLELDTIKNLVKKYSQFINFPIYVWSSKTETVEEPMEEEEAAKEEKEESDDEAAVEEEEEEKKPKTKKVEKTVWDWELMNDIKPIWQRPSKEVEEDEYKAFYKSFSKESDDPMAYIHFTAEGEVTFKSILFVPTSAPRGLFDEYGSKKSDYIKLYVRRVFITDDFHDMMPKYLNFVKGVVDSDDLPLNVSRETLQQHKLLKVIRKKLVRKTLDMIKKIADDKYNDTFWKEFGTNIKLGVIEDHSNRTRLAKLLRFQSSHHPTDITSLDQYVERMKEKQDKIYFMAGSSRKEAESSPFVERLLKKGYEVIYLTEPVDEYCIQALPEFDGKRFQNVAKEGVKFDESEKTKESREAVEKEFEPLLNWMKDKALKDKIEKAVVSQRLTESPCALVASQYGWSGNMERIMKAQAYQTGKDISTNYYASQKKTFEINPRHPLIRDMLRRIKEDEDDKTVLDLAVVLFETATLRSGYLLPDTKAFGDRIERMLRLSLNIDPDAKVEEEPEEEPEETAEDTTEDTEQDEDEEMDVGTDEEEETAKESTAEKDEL

With `COC(=O)[C@@H](Oc1nc(OC)cc(OC)n1)C(C)C` [GPM1, (S)-methyl 2-(4,6-dimethoxypyrimidin-2-yloxy)-3-methylbutanoate] the Kd (gp96 Y731F) was 730 nM, the “koff (dissociation rate constant)” value (gp96 Y731F) was 0.0149 s⁻¹ and the kon (gp96 Y731F; read-out: Ka) was 20400 M⁻¹ s⁻¹. For the same compound, the “glomerulonephritis phenotypes and glomerular immunoglobulin deposition” value (gp96tm transgenic mice; kidney sections) was “lessened”, the “total cell count (spleen)” value (gp96tm transgenic mice; mouse, in vivo, 30 mg/kg/day) was 4.56 ± 1.44 × 10^6 and the “adverse effects / death during administration” value (gp96tm transgenic mice; mouse, in vivo, ip, 30 mg/kg) was “did not give apparent adverse effects”. The DNA-specific autoantibody levels (gp96tm transgenic mice; serum) was “reduced”, the “Nuclear antigen-specific autoantibody levels” value (gp96tm transgenic mice; serum) was “reduced” and the “total serum levels of IgG1, IgG2b, IgG3, IgM, and IgA” value (gp96tm transgenic mice; serum, ELISA) was “reduced”. For the same compound, the “CD4+CD25+Foxp3+ regulatory T cell population” value (gp96tm transgenic mice; spleen and lymph nodes) was “increase”, the “population of CD4+ memory cells and activated CD4+ T cells” value (gp96tm transgenic mice; spleen and lymph nodes) was “reduction” and the “B220+ population” value (gp96tm transgenic mice; [1]) was “reduced”. The “MHC class II+ population” value (gp96tm transgenic mice; [1]) was “reduced”, the “mature B cell population (B220+IgM+IgD+)” value (gp96tm transgenic mice; splenocytes) was “decreased” and the “ICOSL levels in CD11b+CD11c+ myeloid DC” value (gp96tm transgenic mice; splenocytes, 30 mg/kg) was “significantly reduced”. The “ICOSL levels in CD11b+CD11c− macrophages” value (gp96tm transgenic mice; splenocytes, 30 mg/kg) was “suppressed”, the “ICOSL levels in CD11b−CD11c+ lymphoid DCs” value (gp96tm transgenic mice; splenocytes, 30 mg/kg) was “little difference” and the “percentages of gp96+ MHC class II+ cells” value (gp96tm transgenic mice; splenocytes, after 2 month, 30 mg/kg) was ~41%. For the same compound, the Proteinuria (gp96tm transgenic mice; urine) was “reduced”.
